Data taken from US20070027143A1, “Novel substituted 2,3-benzodiazepine derivatives” (priority 2003, published 2007).
Read-outs that look alike come from different tables or passages of the source.

Assays:
Lewis rats [1] = test: Autoimmune encephalomyelitis model, neurological (clinical) symptoms; type: in vivo; details: for Neurological symptoms (change, %): day 24 after immunization; for change in vivo at 1.875 mg/kg / change in vivo at 3.75 mg/kg / change in vivo at 7.5 mg/kg / change in vivo at 15 mg/kg: Rattus norvegicus, ip, read-out: Neurological symptoms (change compared to controls, %)
CD1 mice [2] = test: Anticonvulsant activity, strychnine induced seizures; type: in vivo; details: Mus musculus; po.; read-out: Strychnine ED50
Outline: (§1)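 Compounds were given by mouth in three doses to groups of ten male CD1 mice. Seizures were then provoked chemically, usually 60 min later. Clonic-tonic seizures and lethality were recorded.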

AMPA receptors = test: Inhibition of AMPA induced spreading depression in isolated chicken retina; type: cell-based; details: AMPA (5 μM)
Outline: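 Isolated chicken retina; spreading depression evoked by 5 μM AMPA. Antagonism read as prolongation of the latency to spreading-depression onset.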

CD1 mice [3] = test: Anti-tremor effect, oxotremorine induced tremor; type: in vivo
CD1 mice [4] = test: Anticonvulsant activity, maximal electroshock seizure (MES) test; type: in vivo; details: Mus musculus, po.
BN rats = test: Bronchial hyperresponsiveness of ovalbumin sensitized, antigen challenged BN rats (tracheal rings, acetylcholine); type: in vivo; details: 3.0 mg/kg po, 2 hours pre-challenge, mean ± SE
From the text: Bronchial hyperresponsiveness (BHR) and airway eosinophilia (AEP) are characteristic features of bronchial asthma. BHR is typified by an exaggerated response to a wide variety of stimuli that can induce an increased resistance to airflow in the airways. AEP is a result of prolonged eosinophil infiltration, mast cell, and T cell activation in the airways. In actively (e.g., ovalbumin) immunized rats (e.g., Brown Norway [BN] strain), repeated sensitization followed by antigenic challenge results in lung eosinophilia and bronchial hyperresponsiveness to different spasmogens (e.g., acetylcholine). This is the most frequently employed model for studying potential anti-asthmatic effects of new chemical entities.
BN rats were actively immunized with allergen (ovalbumin). On day one, rats were sensitized with the subcutaneous administration of ovalbumin suspended in Al(OH)3 (2.5 μg ovalbumin +20 mg Al(OH)3 in 0.5 ml saline). Booster injections (same dose and same route) were given at day 14 and 21. Simultaneously at each occasion 0.25 ml of Bordatella pentussis vaccine was injected intraperitoneally. On day 28, animals were challenged by inhalation of the antigen (vaporized 1% OVA solution for 1 hour). Test compounds were administered orally 2 hours pre-challenge.
48 hours following challenge, they were sacrificed by an overdose of urethane (4-5 ml of 15% urethane given i.p.), bronchoalveolar lavage fluid (BALF) was obtained, and tracheae dissected from the animals. Eosinophil cell count (cells/ml BALF) was determined manually using a selective stain for eosinophils and counting the cells in a Buerker chamber. BHR was determined using tracheal rings suspended in an organ bath. After an equilibration period of 30 minutes, cumulative concentration response curves to acetylcholine were determined. Maximal response of control (unchallenged, non-treated) tracheal rings is obtained at 10^−3 M acetylcholine. The height of this response is defined as 100%. All other contractions are expressed as a percentage and related to the control response.

CD1 mice [5] = test: Anticonvulsant activity, 4-aminopyridine induced seizures; type: in vivo; details: Mus musculus; po.; read-out: 4-AP ED50
Outline: as §1

AMPA/kainate receptors = test: Inhibition of AMPA induced whole-cell current in acutely isolated cerebellar Purkinje cells (patch clamp); type: cell-based; details: 5 μM AMPA, read-out: Inhibition of the ion-currents caused by 5 μM AMPA, IC50
Outline: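 Whole-cell patch-clamp on acutely isolated cerebellar Purkinje cells; current evoked by 5 μM AMPA, with compound activity measured as inhibition of this AMPA-induced current.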

Lewis rats [6] = test: Autoimmune encephalomyelitis model, histological symptoms; type: in vivo; details: day 24 after immunization
Method: 5-15 animals were used in each group. Their weights were 160-180 g (Lewis rats, female) and 180-220 g (Lewis rats, male). The activity of the compounds was determined according to the symptom score values, and compared to those of the control group (see Table 6). Histopathological investigations were carried out on the brain stem, the spinal cord, and the sciatic nerve (Gijbels et al., J. Clin. Invest. 94:2177 (1994)) using 5-10 animal/group.
Compounds of the invention were further investigated in the autoimmune encephalomyelitis model in rats as outlined in this description before, with the variance that 10 animals were used in each group, of weights 140-160 g (Lewis rats, female).

CD1 mice [7] = test: Anticonvulsant activity, nicotine induced seizures; type: in vivo; details: Mus musculus; po.
Outline: as §1

What does the source list for Cc1nnc(N2N=C(c3ccc(N)cc3)c3cc4c(cc3C[C@H]2C)OCO4)s1 [Example 86, (R)-5-(4-Aminophenyl)-8-methyl-7-(5-methyl-1,3,4-thiadiazol-2-yl)-8,9-dihydro-7H-1,3-dioxolo-[4,5-h][2,3]benzodiazepine]?
Neurological symptoms (change, %) (Lewis rats [1]; 1.875 mg/kg ip., female rats): −42%; Neurological symptoms (change, %) (Lewis rats [1]; 1.875 mg/kg ip., male rats): +54%; Neurological symptoms (change, %) (Lewis rats [1]; 3.75 mg/kg ip., female rats): −21%; Neurological symptoms (change, %) (Lewis rats [1]; 3.75 mg/kg ip., male rats): −72%; Neurological symptoms (change, %) (Lewis rats [1]; 7.5 mg/kg ip., female rats): −62%; Neurological symptoms (change, %) (Lewis rats [1]; 7.5 mg/kg ip., male rats): −66%; Neurological symptoms (change, %) (Lewis rats [1]; 15 mg/kg ip., female rats): −85%; Neurological symptoms (change, %) (Lewis rats [1]; 15 mg/kg ip., male rats): −67%; change in vivo at 1.875 mg/kg (Lewis rats [1]; 1.875 mg/kg ip., female rats, 0-8 day): -40%; change in vivo at 1.875 mg/kg (Lewis rats [1]; 1.875 mg/kg ip., female rats, 0-14 day): -39%; change in vivo at 1.875 mg/kg (Lewis rats [1]; 1.875 mg/kg ip., male rats, 0-8 day): 5%; change in vivo at 1.875 mg/kg (Lewis rats [1]; 1.875 mg/kg ip., male rats, 0-14 day): -8%; change in vivo at 3.75 mg/kg (Lewis rats [1]; 3.75 mg/kg ip., female rats, 0-8 day): -3%; change in vivo at 3.75 mg/kg (Lewis rats [1]; 3.75 mg/kg ip., female rats, 0-14 day): -18%; change in vivo at 3.75 mg/kg (Lewis rats [1]; 3.75 mg/kg ip., male rats, 0-8 day): -70%; change in vivo at 3.75 mg/kg (Lewis rats [1]; 3.75 mg/kg ip., male rats, 0-14 day): -77%; change in vivo at 7.5 mg/kg (Lewis rats [1]; 7.5 mg/kg ip., female rats, 0-8 day): -62%; change in vivo at 7.5 mg/kg (Lewis rats [1]; 7.5 mg/kg ip., female rats, 0-14 day): -66%; change in vivo at 7.5 mg/kg (Lewis rats [1]; 7.5 mg/kg ip., male rats, 0-8 day): -65%; change in vivo at 7.5 mg/kg (Lewis rats [1]; 7.5 mg/kg ip., male rats, 0-14 day): -70%; change in vivo at 15 mg/kg (Lewis rats [1]; 15 mg/kg ip., female rats, 0-8 day): -97%; change in vivo at 15 mg/kg (Lewis rats [1]; 15 mg/kg ip., female rats, 0-14 day): -85%; change in vivo at 15 mg/kg (Lewis rats [1]; 15 mg/kg ip., male rats, 0-8 day): -93%; change in vivo at 15 mg/kg (Lewis rats [1]; 15 mg/kg ip., male rats, 0-14 day): -67%; Activity compared to the reference compound (histopathological and pharmacological investigations) (Lewis rats [1]; result in words): more active than the reference compound GYKI 53773; ED50 (CD1 mice [2]): 10.6 mg/kg; IC50 (AMPA receptors): 420 nM; ED50 (CD1 mice [3]; Mus musculus, po., Litchfield-Wilcoxon, limits in brackets, read-out: ED50, tremor induced by Oxotremorin 1 mg/kg ip.): 4.3 mg/kg; Anti-tremor activity compared to the reference compounds (CD1 mice [3]; oxotremorine, GYKI 20039 and harmaline, result in words): more active than the reference compounds GYKI 53773 and GYKI 52466; ED50 (CD1 mice [4]; 0.5 h, 30′, read-out: MES 30′ ED50): 4.3 mg/kg; ED50 (CD1 mice [4]; 1 h, 60 min before induction, read-out: MES (MES 60′) ED50): 6.1 mg/kg; MAX: relative contraction compared to the control at a maximal Ach concentration (BN rats): 81 ± 14%; pEC50 of acetylcholine (BN rats): 4.95 ± 0.59 −log M; ED50 (CD1 mice [5]): 10.1 mg/kg; IC50 (AMPA/kainate receptors): 60 nM; Histological (histopathological) symptoms (change, %) (Lewis rats [6]; 1.875 mg/kg ip., female rats): −15%; Histological symptoms (change, %) (Lewis rats [6]; 1.875 mg/kg ip., male rats): −25%; Histological (histopathological) symptoms (change, %) (Lewis rats [6]; 3.75 mg/kg ip., female rats): −20%; Histological symptoms (change, %) (Lewis rats [6]; 3.75 mg/kg ip., male rats): +4%; Histological symptoms (change, %) (Lewis rats [6]; 7.5 mg/kg ip., female rats): −22%; Histological symptoms (change, %) (Lewis rats [6]; 7.5 mg/kg ip., male rats): +1%; Histological symptoms (change, %) (Lewis rats [6]; 15 mg/kg ip., female rats): −53%; Histological symptoms (change, %) (Lewis rats [6]; 15 mg/kg ip., male rats): −66%; ED50 (CD1 mice [7]): 16.5 mg/kg
